# According to ChEMBL document CHEMBL1201862, “PubChem BioAssay data set” (2004):
# Active and inactive are the calls of the source.
# Tests used:
# [1] = activation of miR-122 Renilla sensor silencing – cell-based, Huh7 psiCHECK-miR122, Renilla luciferase, cherry-picked, dose response (AID 651956); type: functional;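 further: huh7 hepatoma cells stably carrying a psiCHECK-2 miR-122 sensor plasmid; renilla luciferase signal reporting endogenous miR-122 activity after 48 h compound exposure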
# [2] = general mammalian cell viability loss – inhibitor set, cherry-pick, set 2, cytotoxicity control for miR-122 modulator project, dose response (AID 720697); type: functional, cell-based
# [3] = biological target: Paired box protein Pax-8 (Homo sapiens, UniProt Q06710); test: PAX8 transcriptional activity inhibition in RMG-I – RMG-I cells, luciferase, cherry-pick, dose response (AID 687027); type: functional, cell-based;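 further: luciferase reporter driven by Pax8 target thyroperoxidase promoter measured by SteadyGlo luminescence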
# Chain of Paired box protein Pax-8 (Q06710 whole entry): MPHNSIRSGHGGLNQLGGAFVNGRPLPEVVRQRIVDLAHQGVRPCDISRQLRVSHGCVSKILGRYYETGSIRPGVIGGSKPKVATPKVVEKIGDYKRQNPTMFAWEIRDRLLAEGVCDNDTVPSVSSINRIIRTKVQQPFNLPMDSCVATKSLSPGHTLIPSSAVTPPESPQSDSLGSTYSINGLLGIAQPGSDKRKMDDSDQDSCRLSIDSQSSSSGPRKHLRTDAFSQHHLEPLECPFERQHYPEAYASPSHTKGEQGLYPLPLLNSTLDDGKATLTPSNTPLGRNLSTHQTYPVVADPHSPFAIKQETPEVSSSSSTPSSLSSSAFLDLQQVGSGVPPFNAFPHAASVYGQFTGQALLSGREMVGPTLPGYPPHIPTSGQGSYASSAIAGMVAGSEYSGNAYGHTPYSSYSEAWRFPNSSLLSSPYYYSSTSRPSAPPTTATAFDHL
# [4] = OVCAR-3 cell viability loss – plate reader, dry powder samples, PAX8 inhibitor project, dose response (AID 743044); type: functional, cell-based
# [5] = general cell-killing toxicity readout – plate reader, dry powder samples, cytotoxicity control for PAX8 inhibitor project, dose response (AID 743021); type: functional, cell-based
# [6] = OVCAR8 cell viability loss – plate reader, dry powder samples, PAX8 project, dose response (AID 743197); type: functional, cell-based; details: OVCAR-8
# [7] = IGROV1 cell killing – plate reader, dry powder samples, PAX8 inhibitor project, dose response (AID 743043); type: functional, cell-based; details: IGROV-1
# [8] = biological target: T1, Small ubiquitin-related modifier 1 (Homo sapiens, UniProt P63165); test: SUMO1 protein interaction blockers, potency – biochemical, fluorescence polarization, uHTS hits, dose response (AID 624382); type: functional; details: read-out: IC50_Mean
# T1 sequence (P63165 whole entry): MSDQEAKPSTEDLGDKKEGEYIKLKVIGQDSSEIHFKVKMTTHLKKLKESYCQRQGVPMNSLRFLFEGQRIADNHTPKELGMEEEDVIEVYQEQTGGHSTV
# [9] = biological target: T1, Small ubiquitin-related modifier 1; test: SUMO1 protein-protein binding blockers, potency – biochemical, FRET, dose response (AID 624383); type: functional; details: read-out: IC50_Mean
Compound,AC50 [1],AC50 [3],AC50 [4],AC50 [6],other results
COc1ccc(-c2ccc3c(c2)O[C@H](CN(C)C(=O)Nc2ccccc2F)[C@H](C)CN([C@@H](C)CO)S3(=O)=O)cc1,9.32 µM (active),,,,AC50 [2]: 0.5 µM (active)
CNC(=O)C[C@H]1CC[C@@H]2[C@H](COc3ccc(NS(=O)(=O)c4ccc(F)cc4)cc3C(=O)N2C)O1,47.9 µM (active),,,,
COc1ccc(CN(C)C[C@H]2OCCCC[C@@H](C)Oc3ccc(NC(=O)Nc4ccc(F)cc4)cc3C(=O)N([C@@H](C)CO)C[C@@H]2C)cc1,,21.7 µM (active),33.8 µM (active),> 70 µM (inactive),AC50 [5]: 51.9 µM (active)
C[C@@H]1CCCCO[C@@H](CN(C)C(=O)Nc2ccc(C(F)(F)F)cc2)[C@H](C)CN([C@H](C)CO)C(=O)c2cc(NS(=O)(=O)c3cccs3)ccc2O1,,8.64 µM (active),20 µM (active),39.4 µM (active),AC50 [7]: 45.5 µM (active)
O=C(N/N=C/c1cccnc1)c1cccc(NC(=O)c2ccc(Cl)cc2)c1,,,,,IC50 [8]: > 66.6 µM (inactive); IC50 [9]: 5.33 µM (active)
